Measurements published in ChEMBL document CHEMBL5390209, “Spinosyn A and Its Derivative Inhibit Colorectal Cancer Cell Growth via the EGFR Pathway” (J Nat Prod, 2023).
Activity calls are given as the source filed them. The rule behind the calls is not given here.

Key:
HT-29 [1] = experiment: Antiproliferative activity against human HT-29 cells assessed as cell growth inhibition incubated for 48 hrs by MTT assay; type: functional, cell-based; conditions: for IC50: HT-29, 48 h
SW480 [2] = experiment: Antiproliferative activity against human SW480 cells assessed as cell growth inhibition incubated for 48 hrs by MTT assay; type: functional, cell-based; conditions: dose >= 10.0 µM
SW-620 = experiment: Antiproliferative activity against human SW620 cells assessed as cell growth inhibition incubated for 48 hrs by MTT assay; type: functional, cell-based; conditions: dose >= 10.0 µM
HCT-116 [3] = experiment: Antiproliferative activity against human HCT-116 cells assessed as cell growth inhibition incubated for 48 hrs by MTT assay; type: functional, cell-based; conditions: dose >= 10.0 µM
LoVo = experiment: Antiproliferative activity against human LoVo cells assessed as cell growth inhibition incubated for 48 hrs by MTT assay; type: functional, cell-based; conditions: dose >= 10.0 µM
RKO = experiment: Antiproliferative activity against human RKO cells assessed as cell growth inhibition incubated for 48 hrs by MTT assay; type: functional, cell-based
DLD-1 [4] = experiment: Antiproliferative activity against human DLD-1 cells assessed as cell growth inhibition incubated for 48 hrs by MTT assay; type: functional, cell-based; conditions: dose >= 10.0 µM
HCT-116 [5] = experiment: Inhibition of colony formation in human HCT-116 cells at 0.75 uM incubated for 14 days by crystal violet staining based colony formation assay; type: functional, cell-based; conditions: time 14.0 day
HT-29 [6] = experiment: Antitumor activity against human HT-29 cells xenografted Balb/c mouse assessed as reduction in tumor growth at 2.5 mg/kg/day, ip administrated for every other day and measured after 28 days; type: functional, organism-based; conditions: time 28.0 day
[7] = Toxicity in human HT-29 cells xenografted Balb/c mouse assessed as change in heart pathology at 2.5 mg/kg/day, ip administrated for every other day and measured after 28 days; type: organism-based; conditions: in vivo, 672 h, time 28 day
[8] = Toxicity in human HT-29 cells xenografted Balb/c mouse assessed as change in spleen pathology at 2.5 mg/kg/day, ip administrated for every other day and measured after 28 days; type: organism-based; conditions: in vivo, 672 h, time 28 day
[9] = Toxicity in human HT-29 cells xenografted Balb/c mouse assessed as change in lung pathology at 2.5 mg/kg/day, ip administrated for every other day and measured after 28 days; type: organism-based; conditions: in vivo, 672 h, time 28 day
HT-29 [10] = experiment: Antiproliferative activity against EGFR knockout human HT-29 cells assessed as reduction in cell viability incubated for 48 hrs by MTT assay; type: functional, cell-based
SW480 [11] = experiment: Antiproliferative activity against EGFR knockout human SW480 cells assessed as reduction in cell viability incubated for 48 hrs by MTT assay; type: functional, cell-based
HT-29 [12] = experiment: Antiproliferative activity against HER2 knockout human HT-29 cells assessed as reduction in cell viability incubated for 48 hrs by MTT assay; type: functional, cell-based
HT-29 [13] = experiment: Antiproliferative activity against double EGFR/HER2 knockout human HT-29 cells assessed as reduction in cell viability incubated for 48 hrs by MTT assay; type: functional, cell-based
SW480 [14] = experiment: Antiproliferative activity against double EGFR/HER2 knockout human SW480 cells assessed as reduction in cell viability incubated for 48 hrs by MTT assay; type: functional, cell-based
HT-29 [15] = experiment: Inhibition of colony formation in HER2 knockdown human HT-29 cells at 0.75 uM incubated for 14 days by crystal violet staining based colony formation assay; type: functional, cell-based; conditions: time 14.0 day
SW480 [16] = experiment: Inhibition of colony formation in EGFR knockdown human SW480 cells at 0.75 uM incubated for 14 days by crystal violet staining based colony formation assay; type: functional, cell-based; conditions: time 14.0 day
[17] = biological target: Epidermal growth factor receptor (Homo sapiens) (UniProt P00533); experiment: Inhibition of EGFR in human HT-29 cells incubated for 24 hrs by Western blotting analysis; type: cell-based; conditions: dose 3.75-15 µM
[18] = biological target: Receptor tyrosine-protein kinase erbB-2 (Homo sapiens) (UniProt P04626); experiment: Inhibition of HER2 in human HT-29 cells incubated for 24 hrs by Western blotting analysis; type: cell-based
[19] = biological target: Epidermal growth factor receptor (Homo sapiens) (UniProt P00533); experiment: Inhibition of EGFR phosphorylation in human HT-29 cells incubated for 24 hrs by Western blotting analysis; type: cell-based
[20] = biological target: Receptor tyrosine-protein kinase erbB-2 (Homo sapiens) (UniProt P04626); experiment: Inhibition of HER2 phosphorylation in human HT-29 cells incubated for 24 hrs by Western blotting analysis; type: cell-based
[21] = biological target: Epidermal growth factor receptor (Homo sapiens) (UniProt P00533); experiment: Inhibition of EGFR in human SW480 cells incubated for 24 hrs by Western blotting analysis; type: cell-based
[22] = biological target: Receptor tyrosine-protein kinase erbB-2 (Homo sapiens) (UniProt P04626); experiment: Inhibition of HER2 in human SW480 cells incubated for 24 hrs by Western blotting analysis; type: cell-based
[23] = biological target: Epidermal growth factor receptor (Homo sapiens) (UniProt P00533); experiment: Inhibition of EGFR phosphorylation in human SW480 cells incubated for 24 hrs by Western blotting analysis; type: cell-based
[24] = biological target: Receptor tyrosine-protein kinase erbB-2 (Homo sapiens) (UniProt P04626); experiment: Inhibition of HER2 phosphorylation in human SW480 cells incubated for 24 hrs by Western blotting analysis; type: cell-based
HT-29 [25] = experiment: Inhibition of EGFR in human HT-29 cells xenografted in BALB/c nude mouse assessed as EGFR protein level in tumor at 2.5 mg/kg/day, ip administrated for every other day and measured after 28 days by Western blotting analysis; type: functional, organism-based; conditions: time 28.0 day
HT-29 [26] = experiment: Inhibition of HER2 in human HT-29 cells xenografted in BALB/c nude mouse assessed as HER2 protein level in tumor at 2.5 mg/kg/day, ip administrated for every other day and measured after 28 days by Western blotting analysis; type: functional, organism-based; conditions: time 28.0 day
[27] = biological target: Epidermal growth factor receptor (Homo sapiens) (UniProt P00533); experiment: Inhibition of EGFR in human HT-29 cells at 2 uM by Western blot analysis; type: cell-based; conditions: time 3-15 hrs, TDE = time-dependent effect
[28] = biological target: Epidermal growth factor receptor (Homo sapiens) (UniProt P00533); experiment: Inhibition of EGFR in human HT-29 cells assessed as reduction in Erk1/2 phosphorylation level at 2 uM by Western blotting analysis; type: cell-based; conditions: time 3-15 hrs, TDE = time-dependent effect
[29] = biological target: Epidermal growth factor receptor (Homo sapiens) (UniProt P00533); experiment: Inhibition of EGFR in human SW480 cells assessed as reduction in STAT3 phosphorylation level at 0.5 to 2 uM incubated for 24 hrs by Western blot analysis; type: cell-based; conditions: dose 0.5-2 µM
DLD-1 [30] = experiment: Inhibition of colony formation in human DLD-1 cells at 6 uM incubated for 14 days by crystal violet staining based colony formation assay; type: functional, cell-based; conditions: time 14.0 day
[31] = Toxicity in human HT-29 cells xenografted Balb/c mouse assessed as change in body weight at 5 mg/kg/day, ip administrated for every other day and measured after 6 days; type: organism-based; conditions: in vivo, 144 h, time 6 day
HT-29 [32] = experiment: Antitumor activity against human HT-29 cells xenografted Balb/c mouse assessed as reduction in tumor cell density at 5 mg/kg/day, ip administrated for every other day and measured after 28 days by Hematoxylin and Eosin staining based method; type: functional, organism-based; conditions: time 28.0 day
[33] = Toxicity in human HT-29 cells xenografted Balb/c mouse assessed as change in heart pathology at 5 mg/kg/day, ip administrated for every other day and measured after 28 days; type: organism-based; conditions: in vivo, 672 h, time 28 day
[34] = Toxicity in human HT-29 cells xenografted Balb/c mouse assessed as change in kidney pathology at 5 mg/kg/day, ip administrated for every other day and measured after 28 days; type: organism-based; conditions: in vivo, 672 h, time 28 day
[35] = biological target: Epidermal growth factor receptor (Homo sapiens) (UniProt P00533); experiment: Inhibition of EGFR in human HT-29 cells assessed as reduction in Erk1/2 phosphorylation level at 3.75 to 15 uM incubated for 24 hrs by Western blotting analysis; type: cell-based; conditions: dose 3.75-15 µM
[36] = biological target: Epidermal growth factor receptor (Homo sapiens) (UniProt P00533); experiment: Inhibition of EGFR in human SW480 cells assessed as reduction in MEK1/2 phosphorylation level at 3.75 to 15 uM incubated for 24 hrs by Western blot analysis; type: cell-based; conditions: dose 3.75-15 µM
HT-29 [37] = experiment: Inhibition of HER2 in human HT-29 cells xenografted in BALB/c nude mouse assessed as HER2 protein level in tumor at 5 mg/kg/day, ip administrated for every other day and measured after 28 days by Western blotting analysis; type: functional, organism-based; conditions: time 28.0 day

Chain of Epidermal growth factor receptor (Homo sapiens) (P00533 whole entry): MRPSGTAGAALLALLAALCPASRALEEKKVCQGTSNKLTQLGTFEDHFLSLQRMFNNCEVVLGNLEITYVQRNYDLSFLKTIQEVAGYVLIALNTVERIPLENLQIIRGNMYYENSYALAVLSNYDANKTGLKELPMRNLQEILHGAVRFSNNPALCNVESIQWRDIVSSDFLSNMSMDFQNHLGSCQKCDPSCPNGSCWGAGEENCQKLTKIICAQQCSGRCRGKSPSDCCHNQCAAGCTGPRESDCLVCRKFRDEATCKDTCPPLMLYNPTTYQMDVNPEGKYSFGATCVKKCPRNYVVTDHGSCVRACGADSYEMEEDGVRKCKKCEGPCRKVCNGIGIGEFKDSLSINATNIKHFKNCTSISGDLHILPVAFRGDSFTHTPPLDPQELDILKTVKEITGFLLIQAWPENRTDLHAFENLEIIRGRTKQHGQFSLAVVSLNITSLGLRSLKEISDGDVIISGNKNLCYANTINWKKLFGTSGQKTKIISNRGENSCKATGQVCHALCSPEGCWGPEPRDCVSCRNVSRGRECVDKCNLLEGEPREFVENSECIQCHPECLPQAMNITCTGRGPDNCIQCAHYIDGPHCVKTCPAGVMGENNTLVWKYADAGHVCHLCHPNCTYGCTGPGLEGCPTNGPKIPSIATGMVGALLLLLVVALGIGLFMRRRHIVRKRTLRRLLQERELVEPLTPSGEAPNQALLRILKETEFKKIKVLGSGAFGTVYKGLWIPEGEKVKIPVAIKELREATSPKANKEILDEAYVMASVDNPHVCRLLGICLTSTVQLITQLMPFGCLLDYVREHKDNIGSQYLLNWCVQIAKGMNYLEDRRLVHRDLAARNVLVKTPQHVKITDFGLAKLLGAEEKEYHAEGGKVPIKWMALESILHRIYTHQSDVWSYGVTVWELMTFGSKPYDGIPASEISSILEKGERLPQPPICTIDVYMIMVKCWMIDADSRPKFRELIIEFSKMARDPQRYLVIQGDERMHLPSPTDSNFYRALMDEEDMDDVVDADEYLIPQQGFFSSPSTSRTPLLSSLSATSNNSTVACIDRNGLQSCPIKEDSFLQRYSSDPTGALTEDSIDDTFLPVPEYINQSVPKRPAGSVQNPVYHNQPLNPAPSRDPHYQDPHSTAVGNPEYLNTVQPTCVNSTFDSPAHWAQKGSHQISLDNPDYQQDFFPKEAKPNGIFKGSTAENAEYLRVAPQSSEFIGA
Chain of Receptor tyrosine-protein kinase erbB-2 (Homo sapiens) (P04626 whole entry): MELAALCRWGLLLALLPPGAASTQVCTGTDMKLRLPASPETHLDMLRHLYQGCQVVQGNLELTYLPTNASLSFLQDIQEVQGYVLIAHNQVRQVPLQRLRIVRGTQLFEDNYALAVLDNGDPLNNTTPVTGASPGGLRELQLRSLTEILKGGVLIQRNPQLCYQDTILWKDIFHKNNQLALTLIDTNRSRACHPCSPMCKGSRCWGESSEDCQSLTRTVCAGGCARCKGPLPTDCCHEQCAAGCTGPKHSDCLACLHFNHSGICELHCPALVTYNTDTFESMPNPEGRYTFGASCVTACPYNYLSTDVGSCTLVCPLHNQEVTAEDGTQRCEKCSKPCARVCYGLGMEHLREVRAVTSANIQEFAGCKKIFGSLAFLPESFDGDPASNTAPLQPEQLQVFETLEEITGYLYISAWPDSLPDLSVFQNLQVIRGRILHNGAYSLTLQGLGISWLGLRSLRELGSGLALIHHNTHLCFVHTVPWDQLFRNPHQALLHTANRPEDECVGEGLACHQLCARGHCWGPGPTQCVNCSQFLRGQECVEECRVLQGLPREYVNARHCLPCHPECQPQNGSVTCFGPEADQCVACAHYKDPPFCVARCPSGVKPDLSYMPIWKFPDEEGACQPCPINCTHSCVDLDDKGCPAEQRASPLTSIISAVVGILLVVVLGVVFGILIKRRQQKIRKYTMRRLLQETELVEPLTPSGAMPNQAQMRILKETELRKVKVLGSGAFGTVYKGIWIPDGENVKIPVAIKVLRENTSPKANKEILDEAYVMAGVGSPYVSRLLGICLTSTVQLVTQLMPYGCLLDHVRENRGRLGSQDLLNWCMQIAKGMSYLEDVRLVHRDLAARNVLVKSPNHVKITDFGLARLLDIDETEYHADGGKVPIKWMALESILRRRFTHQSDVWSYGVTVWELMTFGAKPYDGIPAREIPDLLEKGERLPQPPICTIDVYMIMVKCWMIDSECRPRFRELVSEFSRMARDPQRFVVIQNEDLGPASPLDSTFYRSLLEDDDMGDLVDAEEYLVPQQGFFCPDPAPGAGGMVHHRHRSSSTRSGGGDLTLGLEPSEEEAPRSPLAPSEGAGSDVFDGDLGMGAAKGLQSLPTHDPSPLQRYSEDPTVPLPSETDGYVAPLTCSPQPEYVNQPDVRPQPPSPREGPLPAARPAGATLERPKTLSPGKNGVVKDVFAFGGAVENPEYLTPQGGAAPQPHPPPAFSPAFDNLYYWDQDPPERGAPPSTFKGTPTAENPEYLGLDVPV

Row | Compound | Activity (HT-29 [1]) | IC50 (HT-29 [1]) | Activity (SW480 [2]) | Activity (SW-620) | Activity (HCT-116 [3]) | Activity (LoVo) | IC50 (RKO) | Activity (DLD-1 [4]) | Activity (HT-29 [10]) | Activity (SW480 [11]) | Activity (HT-29 [12]) | Activity (HT-29 [13]) | Activity (SW480 [14]) | inhibition [17] | inhibition [18] | inhibition [19] | inhibition [20] | inhibition [21] | inhibition [22] | inhibition [23] | other results
1 | CC[C@H]1CCC[C@H](O[C@H]2CC[C@H](N(C)CC(O)CN3CCNCC3)[C@@H](C)O2)[C@@H](C)C(=O)C2=C[C@@H]3[C@@H](C=C[C@@H]4C[C@@H](O[C@@H]5O[C@@H](C)[C@H](OC)[C@@H](OC)[C@H]5OC)C[C@@H]34)[C@@H]2CC(=O)O1 (some centres undefined) | Dose-Dependent Effect | 0.75 µM | Dose-Dependent Effect | Dose-Dependent Effect | Dose-Dependent Effect | Dose-Dependent Effect | 3.3 µM | Dose-Dependent Effect | inactive | inactive | inactive | inactive | inactive | Dose-Dependent Effect | Dose-Dependent Effect | Dose-Dependent Effect | Dose-Dependent Effect | Dose-Dependent Effect | Dose-Dependent Effect | Dose-Dependent Effect | inhibition (RKO; dose >= 10.0 µM): Dose-Dependent Effect; inhibition (HCT-116 [5]): Active; Activity (HT-29 [6]): Active; Activity [7]: Non-Toxic; Activity [8]: Non-Toxic; Activity [9]: Non-Toxic; Activity (HT-29 [15]): inactive; Activity (SW480 [16]): inactive; inhibition [24]: Dose-Dependent Effect; inhibition (HT-29 [25]): Active; inhibition (HT-29 [26]): Active; inhibition [27]: Tde; inhibition [28]: Tde; inhibition [29]: Active
2 | CC[C@H]1CCC[C@H](O[C@H]2CC[C@H](N(C)C)[C@@H](C)O2)[C@@H](C)C(=O)C2=C[C@@H]3[C@@H](C=C[C@@H]4C[C@@H](O[C@@H]5O[C@@H](C)[C@H](OC)[C@@H](OC)[C@H]5OC)C[C@@H]34)[C@@H]2CC(=O)O1 [SPINOSYN A] | Dose-Dependent Effect | 7.3 µM | Dose-Dependent Effect | Dose-Dependent Effect | Dose-Dependent Effect | Dose-Dependent Effect | 17 µM | Dose-Dependent Effect | inactive | inactive | inactive | inactive | inactive | Dose-Dependent Effect | Dose-Dependent Effect | Dose-Dependent Effect | Dose-Dependent Effect | Dose-Dependent Effect | Dose-Dependent Effect | Dose-Dependent Effect | Activity (RKO; dose >= 10.0 µM): Dose-Dependent Effect; inhibition (DLD-1 [30]): Active; Activity [31]: Non-Toxic; Activity (HT-29 [32]): Active; Activity [33]: Non-Toxic; Activity [34]: Non-Toxic; inhibition [24]: Dose-Dependent Effect; inhibition [35]: Active; inhibition [36]: Active; inhibition (HT-29 [37]): Active
